Test results reported in ChEMBL document CHEMBL1201861, “Genomics of Drug Sensitity in Cancer screening data, Wellcome Trust Sanger Institute”.
pIC50: −log10 of the molar value.

Columns and labels:
NCI-H1963 = assay: cells; type: functional, cell-based; conditions: Homo sapiens;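 also: cell growth inhibition of the human line, determined with a cell viability assay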
Description: SANGER: Inhibition of human NCI-H1963 cell growth in a cell viability assay.

RPMI-2650 = assay: cells; type: functional, cell-based, Homo sapiens; conditions: Homo sapiens, RPMI-2650
Description: SANGER: Inhibition of human RPMI-2650 cell growth in a cell viability assay.

NCI-H187 = assay: cells; type: functional, cell-based; conditions: Homo sapiens;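 also: growth inhibition of NCI-H187 cells, read out as cell viability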
Description: SANGER: Inhibition of human NCI-H187 cell growth in a cell viability assay.

COLO-668 = assay: cells; type: functional, cell-based, Homo sapiens; conditions: Homo sapiens, COLO-668
Description: SANGER: Inhibition of human COLO-668 cell growth in a cell viability assay.

LP-1 = assay: cells; type: functional, cell-based; conditions: Homo sapiens;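 also: growth inhibition of human LP-1 cells, with the read-out taken from a cell viability assay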
Description: SANGER: Inhibition of human LP-1 cell growth in a cell viability assay.

CMK = assay: cells; type: functional, cell-based; conditions: Homo sapiens;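 also: growth inhibition of CMK cells, read out as cell viability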
Description: SANGER: Inhibition of human CMK cell growth in a cell viability assay.

HCC1599 = assay: cells; type: functional, cell-based; conditions: Homo sapiens;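 also: growth inhibition of HCC1599 cells, read out in a cell viability assay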
Description: SANGER: Inhibition of human HCC1599 cell growth in a cell viability assay.

NCI-H716 = assay: cells; type: functional, cell-based; conditions: Homo sapiens;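 also: growth inhibition of human NCI-H716 cells, measured by a cell viability assay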
Description: SANGER: Inhibition of human NCI-H716 cell growth in a cell viability assay.

YT = assay: cells; type: functional, cell-based; conditions: Homo sapiens
Description: SANGER: Inhibition of human YT cell growth in a cell viability assay.

SNU-16 = assay: cells; type: functional, cell-based; conditions: Homo sapiens;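 also: growth inhibition of human SNU-16 cells, determined with a cell viability readout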
Description: SANGER: Inhibition of human NCI-SNU-16 cell growth in a cell viability assay.

HCC1187 = assay: cells; type: functional, cell-based, Homo sapiens; conditions: Homo sapiens, HCC1187;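 also: growth inhibition of HCC1187 cells, read out with a cell viability assay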
Description: SANGER: Inhibition of human HCC1187 cell growth in a cell viability assay.

ABC-1 = assay: cells; type: functional, cell-based, Homo sapiens; conditions: Homo sapiens, ABC-1;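 also: growth inhibition of human ABC-1 cells, read out by a cell viability assay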
Description: SANGER: Inhibition of human ABC-1 cell growth in a cell viability assay.

SBC-5 = assay: cells; type: functional, cell-based, Homo sapiens; conditions: Homo sapiens, SBC-5;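 also: cell viability assay read-out, IC50 is the concentration that inhibits growth of the cells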
Description: SANGER: Inhibition of human SBC-5 cell growth in a cell viability assay.

WSU-NHL = assay: cells; type: functional, cell-based; conditions: Homo sapiens;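 also: growth inhibition of human WSU-NHL cells, read out with a cell viability assay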
Description: SANGER: Inhibition of human WSU-NHL cell growth in a cell viability assay.

D-263MG = assay: cells; type: functional, cell-based, Homo sapiens; conditions: Homo sapiens, D-263MG
Description: SANGER: Inhibition of human D-263MG cell growth in a cell viability assay.

KARPAS-422 = assay: cells; type: functional, cell-based; conditions: Homo sapiens
Description: SANGER: Inhibition of human KARPAS-422 cell growth in a cell viability assay.

23132-87 = assay: cells; type: functional, cell-based, Homo sapiens; conditions: Homo sapiens
Description: SANGER: Inhibition of human 23132-87 cell growth in a cell viability assay.

GCIY = assay: cells; type: functional, cell-based, Homo sapiens; conditions: Homo sapiens, GCIY;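 also: growth inhibition of the human GCIY cell line, read out by a cell viability assay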
Description: SANGER: Inhibition of human GCIY cell growth in a cell viability assay.

NCI-H2342 = assay: cells; type: functional, cell-based; conditions: Homo sapiens;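 also: growth inhibition of the cancer cell line, determined with a cell viability assay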
Description: SANGER: Inhibition of human NCI-H2342 cell growth in a cell viability assay.

LB996-RCC = assay: cells; type: functional, cell-based; conditions: Homo sapiens
Description: SANGER: Inhibition of human LB996-RCC cell growth in a cell viability assay.

RL95-2 = assay: cells; type: functional, cell-based; conditions: Homo sapiens;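 also: RL95-2 growth inhibition determined through a cell viability readout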
Description: SANGER: Inhibition of human RL95-2 cell growth in a cell viability assay.

LC4-1 = assay: cells; type: functional, cell-based; conditions: Homo sapiens;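 also: growth inhibition of LC4-1 cells, read out with a cell viability assay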
Description: SANGER: Inhibition of human LC4-1 cell growth in a cell viability assay.

EM-2 = assay: cells; type: functional, cell-based; conditions: Homo sapiens;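 also: growth inhibition of EM-2 cells, read out with a cell viability assay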
Description: SANGER: Inhibition of human EM-2 cell growth in a cell viability assay.

SCC-4 = assay: cells; type: functional, cell-based, Homo sapiens; conditions: Homo sapiens, SCC-4;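 also: growth inhibition of human SCC-4 cells, read out as cell viability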
Description: SANGER: Inhibition of human SCC-4 cell growth in a cell viability assay.

COLO-684 = assay: cells; type: functional, cell-based; conditions: Homo sapiens
Description: SANGER: Inhibition of human COLO-684 cell growth in a cell viability assay.

BOKU = assay: cells; type: functional, cell-based; conditions: Homo sapiens;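 also: growth inhibition of the human BOKU cell line, read out by a cell viability assay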
Description: SANGER: Inhibition of human BOKU cell growth in a cell viability assay.

EB2 = assay: cells; type: functional, cell-based; conditions: Homo sapiens;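 also: growth inhibition of EB2 cells, read out with a cell viability assay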
Description: SANGER: Inhibition of human EB2 cell growth in a cell viability assay.

ECC4 = assay: cells; type: functional, cell-based; conditions: Homo sapiens;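 also: growth inhibition of ECC4 cells, read out with a cell viability assay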
Description: SANGER: Inhibition of human ECC4 cell growth in a cell viability assay.

IST-SL2 = assay: cells; type: functional, cell-based; conditions: Homo sapiens;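 also: growth inhibition of human IST-SL2 cells, read out by a cell viability assay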
Description: SANGER: Inhibition of human IST-SL2 cell growth in a cell viability assay.

NCI-H522 = assay: cells; type: functional, cell-based, Homo sapiens; conditions: Homo sapiens, NCI-H522;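 also: cell viability assay measuring growth inhibition of human NCI-H522 cells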
Description: SANGER: Inhibition of human NCI-H522 cell growth in a cell viability assay.

UACC-812 = assay: cells; type: functional, cell-based; conditions: Homo sapiens
Description: SANGER: Inhibition of human UACC-812 cell growth in a cell viability assay.

SNU-387 = assay: cells; type: functional, cell-based, Homo sapiens; conditions: Homo sapiens, SNU-387
Description: SANGER: Inhibition of human SNU-387 cell growth in a cell viability assay.

Raji = assay: cells; type: functional, cell-based; conditions: Homo sapiens;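 also: cell viability assay measuring inhibition of Raji cell growth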
Description: SANGER: Inhibition of human Raji cell growth in a cell viability assay.

RPMI-6666 = assay: cells; type: functional, cell-based; conditions: Homo sapiens
Description: SANGER: Inhibition of human RPMI-6666 cell growth in a cell viability assay.

8-MG-BA = assay: cells; type: functional, cell-based, Homo sapiens; conditions: Homo sapiens, 8-MG-BA;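 also: growth inhibition of 8-MG-BA cells, read out with a cell viability assay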
Description: SANGER: Inhibition of human 8-MG-BA cell growth in a cell viability assay.

EHEB = assay: cells; type: functional, cell-based; conditions: Homo sapiens;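 also: growth inhibition of human EHEB cells, read out with a cell viability assay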
Description: SANGER: Inhibition of human EHEB cell growth in a cell viability assay.

FaDu = assay: cells; type: functional, cell-based, Homo sapiens; conditions: Homo sapiens, FaDu;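 also: cell viability readout of growth inhibition in FaDu cells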
Description: SANGER: Inhibition of human FADU cell growth in a cell viability assay.

SIG-M5 = assay: cells; type: functional, cell-based; conditions: Homo sapiens;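 also: cell viability assay read-out, measuring how strongly growth of cultured human SIG-M5 cells is inhibited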
Description: SANGER: Inhibition of human SIG-M5 cell growth in a cell viability assay.

MDA-MB-134-VI = assay: cells; type: functional, cell-based; conditions: Homo sapiens
Description: SANGER: Inhibition of human MDA-MB-134-VI cell growth in a cell viability assay.

RL = assay: cells; type: functional, cell-based; conditions: Homo sapiens
Description: SANGER: Inhibition of human RL cell growth in a cell viability assay.

IMR-5 = assay: cells; type: functional, cell-based; conditions: Homo sapiens;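 also: growth inhibition of human IMR-5 cells, read out with a cell viability assay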
Description: SANGER: Inhibition of human IMR-5 cell growth in a cell viability assay.

NCI-H1882 = assay: cells; type: functional, cell-based; conditions: Homo sapiens;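 also: growth inhibition of the cell line, determined with a viability assay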
Description: SANGER: Inhibition of human NCI-H1882 cell growth in a cell viability assay.

EC-GI-10 = assay: cells; type: functional, cell-based, Homo sapiens; conditions: Homo sapiens, EC-GI-10
Description: SANGER: Inhibition of human EC-GI-10 cell growth in a cell viability assay.

EFO-21 = assay: cells; type: functional, cell-based, Homo sapiens; conditions: Homo sapiens, EFO-21;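 also: growth inhibition of EFO-21 cells measured with a viability assay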
Description: SANGER: Inhibition of human EFO-21 cell growth in a cell viability assay.

SU-DHL-1 = assay: SANGER: Inhibition of human SU-DHL-1 cell growth in a cell viability assay.; type: functional, cell-based
IGR-1 = assay: cells; type: functional, cell-based, Homo sapiens; conditions: Homo sapiens, IGR-1;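 also: growth inhibition of human IGR-1 cells, read out with a cell viability assay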
Description: SANGER: Inhibition of human IGR-1 cell growth in a cell viability assay.

HSC-3 = assay: cells; type: functional, cell-based, Homo sapiens; conditions: Homo sapiens, HSC-3
Description: SANGER: Inhibition of human HSC-3 cell growth in a cell viability assay.

SW872 = assay: cells; type: functional, cell-based, Homo sapiens; conditions: Homo sapiens, SW872;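 also: growth inhibition of SW872 cells, read out by a viability assay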
Description: SANGER: Inhibition of human SW872 cell growth in a cell viability assay.

PF-382 = assay: cells; type: functional, cell-based; conditions: Homo sapiens
Description: SANGER: Inhibition of human PF-382 cell growth in a cell viability assay.

L-428 = assay: cells; type: functional, cell-based; conditions: Homo sapiens
Description: SANGER: Inhibition of human L-428 cell growth in a cell viability assay.

COC(=O)CNC(=O)C(=O)OC
pIC50 (NCI-H1963): 2.99 | pIC50 (RPMI-2650): 3.55 | pIC50 (NCI-H187): 3.23 | pIC50 (COLO-668): 4.03 | pIC50 (LP-1): 3.72 | pIC50 (CMK): 3.90 | pIC50 (HCC1599): 3.89 | pIC50 (NCI-H716): 2.76 | pIC50 (YT): 4.63 | pIC50 (SNU-16): < 2.40 | pIC50 (HCC1187): < 2.40 | pIC50 (ABC-1): 3.35 | pIC50 (SBC-5): 2.86 | pIC50 (WSU-NHL): < 2.40 | pIC50 (D-263MG): 3.39 | pIC50 (KARPAS-422): 3.79 | pIC50 (23132-87): < 2.40 | pIC50 (GCIY): 3.96 | pIC50 (NCI-H2342): 3.98 | pIC50 (LB996-RCC): 5.18 | pIC50 (RL95-2): 2.45 | pIC50 (LC4-1): 4.00 | pIC50 (EM-2): 3.63 | pIC50 (SCC-4): 3.06 | pIC50 (COLO-684): 3.25 | pIC50 (BOKU): 3.75 | pIC50 (EB2): 3.53 | pIC50 (ECC4): 2.45 | pIC50 (IST-SL2): 3.80 | pIC50 (NCI-H522): 3.53 | pIC50 (UACC-812): 2.52 | pIC50 (SNU-387): 3.66 | pIC50 (Raji): 3.22 | pIC50 (RPMI-6666): 3.64 | pIC50 (8-MG-BA): 3.90 | pIC50 (EHEB): 3.57 | pIC50 (FaDu): 4.00 | pIC50 (SIG-M5): 4.24 | pIC50 (MDA-MB-134-VI): < 2.40 | pIC50 (RL): 3.22 | pIC50 (IMR-5): 3.60 | pIC50 (NCI-H1882): 3.87 | pIC50 (EC-GI-10): < 2.40 | pIC50 (EFO-21): 3.59 | pIC50 (SU-DHL-1): 3.90 | pIC50 (IGR-1): 2.78 | pIC50 (HSC-3): 3.21 | pIC50 (SW872): 3.22 | pIC50 (PF-382): 4.07 | pIC50 (L-428): 3.16

COc1cc([C@@H]2c3cc4c(cc3[C@@H](O[C@@H]3O[C@@H]5CO[C@@H](C)O[C@H]5[C@H](O)[C@H]3O)[C@H]3COC(=O)[C@H]23)OCO4)cc(OC)c1O [ETOPOSIDE]
pIC50 (NCI-H1963): 4.92 | pIC50 (RPMI-2650): 6.24 | pIC50 (NCI-H187): 6.17 | pIC50 (COLO-668): 5.78 | pIC50 (LP-1): < 4.80 | pIC50 (CMK): 5.57 | pIC50 (HCC1599): 6.21 | pIC50 (NCI-H716): < 4.80 | pIC50 (YT): < 4.80 | pIC50 (SNU-16): < 4.80 | pIC50 (HCC1187): < 4.80 | pIC50 (ABC-1): 6.39 | pIC50 (SBC-5): 6.52 | pIC50 (WSU-NHL): 5.36 | pIC50 (D-263MG): < 4.80 | pIC50 (KARPAS-422): 5.36 | pIC50 (23132-87): 6.30 | pIC50 (GCIY): 6.03 | pIC50 (NCI-H2342): 6.26 | pIC50 (LB996-RCC): < 4.80 | pIC50 (RL95-2): 5.95 | pIC50 (LC4-1): 5.49 | pIC50 (EM-2): 5.80 | pIC50 (SCC-4): 5.14 | pIC50 (COLO-684): < 4.80 | pIC50 (BOKU): 5.79 | pIC50 (EB2): 6.41 | pIC50 (ECC4): < 4.80 | pIC50 (IST-SL2): 6.07 | pIC50 (NCI-H522): 5.47 | pIC50 (UACC-812): < 4.80 | pIC50 (SNU-387): < 4.80 | pIC50 (Raji): 5.08 | pIC50 (RPMI-6666): 5.99 | pIC50 (8-MG-BA): 7.33 | pIC50 (EHEB): < 4.80 | pIC50 (FaDu): 5.89 | pIC50 (SIG-M5): 6.88 | pIC50 (MDA-MB-134-VI): < 4.80 | pIC50 (RL): < 4.80 | pIC50 (IMR-5): 6.33 | pIC50 (NCI-H1882): 5.57 | pIC50 (EC-GI-10): < 4.80 | pIC50 (EFO-21): 4.93 | pIC50 (SU-DHL-1): 6.02 | pIC50 (IGR-1): 5.80 | pIC50 (HSC-3): 5.84 | pIC50 (SW872): 6.19 | pIC50 (PF-382): 6.14 | pIC50 (L-428): 5.52
